These are literature values, as cited in patent publication US8324185B2, “Composition for the treatment of obesity and hyperlipidemia” (Nucitec, S.A. DF C.V., priority 2004, dated 2012).

For data set [1] the following is noted: dietary fat.
In data set [2] the target is T1, pancreatic lipase (Homo sapiens, UniProt P16233).
T1 sequence (P16233 17-465): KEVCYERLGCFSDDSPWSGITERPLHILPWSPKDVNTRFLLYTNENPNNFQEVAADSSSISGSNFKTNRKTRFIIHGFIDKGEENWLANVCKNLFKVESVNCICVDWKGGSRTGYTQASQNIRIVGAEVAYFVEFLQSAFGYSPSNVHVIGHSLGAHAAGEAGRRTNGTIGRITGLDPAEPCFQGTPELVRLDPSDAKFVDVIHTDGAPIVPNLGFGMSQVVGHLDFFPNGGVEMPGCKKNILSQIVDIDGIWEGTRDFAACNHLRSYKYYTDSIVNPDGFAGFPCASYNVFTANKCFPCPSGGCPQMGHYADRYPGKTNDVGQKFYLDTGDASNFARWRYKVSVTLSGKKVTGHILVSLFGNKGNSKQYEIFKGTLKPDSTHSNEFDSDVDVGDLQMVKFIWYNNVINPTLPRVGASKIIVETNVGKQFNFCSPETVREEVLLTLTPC
The note with it: in vitro.

`NCCCC[C@H](N)C(=O)O` [lisine]: the “pK value of the amino group” value is listed as ~9.

Turning to `CCCCCCCCCCC[C@@H](C[C@@H]1OC(=O)[C@H]1CCCCCC)OC(=O)[C@H](CC(C)C)NC=O` [orlistat], in data set [1], the “reduction in fat absorption from the diet” value is 30%. In data set [2], the “inhibition of pancreatic lipase activity” value is “fully inhibits”.
